Test results reported in ChEMBL document CHEMBL4649986, “Chemical probes and inhibitors of bromodomains outside the BET family” (Medchemcomm, 2016).

Tests used:
[1] = target: T1, Nucleosome-remodeling factor subunit BPTF (Homo sapiens, UniProt Q12830); assay: Alphascreen assay. Binding to FALZA (domain start/stop: S2791-H2911) by alphascreen assay
Peregrin = Peregrin (Homo sapiens, UniProt P55201); assay: Alphascreen assay. Binding to BRPF1B (domain start/stop: M626-G740) by alphascreen assay
[2] = target: T2, Chromatin remodeling regulator CECR2 (Homo sapiens, UniProt Q9BXF3); assay: Alphascreen assay. Binding to CECR2A (domain start/stop: P420-D543) by alphascreen assay
[3] = target: T2, Chromatin remodeling regulator CECR2; assay: Alphascreen assay. Binding to CECR2A (domain start/stop: P420-H538) by alphascreen assay
[4] = target: Histone-lysine N-methyltransferase ASH1L (Homo sapiens) (UniProt Q9NR48); details: Compound concentration 10.0 uM, Protein concentration 2.0 uM
[5] = target: ATPase family AAA domain-containing protein 2 (Homo sapiens) (UniProt Q6PL18); details: Compound concentration 10.0 uM, Protein concentration 2.0 uM
[6] = target: ATPase family AAA domain-containing protein 2B (Homo sapiens) (UniProt Q9ULI0); details: Compound concentration 10.0 uM, Protein concentration 2.0 uM
[7] = target: Bromodomain adjacent to zinc finger domain protein 1A (Homo sapiens) (UniProt Q9NRL2); details: Compound concentration 10.0 uM, Protein concentration 2.0 uM
[8] = target: Tyrosine-protein kinase BAZ1B (Homo sapiens) (UniProt Q9UIG0); details: Compound concentration 10.0 uM, Protein concentration 2.0 uM
[9] = target: Bromodomain adjacent to zinc finger domain protein 2A (Homo sapiens) (UniProt Q9UIF9); details: Compound concentration 10.0 uM, Protein concentration 2.0 uM
[10] = target: Bromodomain adjacent to zinc finger domain protein 2B (Homo sapiens) (UniProt Q9UIF8); details: Compound concentration 10.0 uM, Protein concentration 2.0 uM
[11] = target: T1, Nucleosome-remodeling factor subunit BPTF; details: Compound concentration 10.0 uM, Protein concentration 2.0 uM
[12] = target: Bromodomain-containing protein 1 (Homo sapiens) (UniProt O95696); details: Compound concentration 10.0 uM, Protein concentration 2.0 uM
[13] = target: Bromodomain-containing protein 2 (Homo sapiens) (UniProt P25440); details: Compound concentration 10.0 uM, Protein concentration 2.0 uM
[14] = target: Bromodomain-containing protein 2 (Homo sapiens) (UniProt P25440); details: Compound concentration 10.0 uM, Protein concentration 2.0 uM; remark: listed apart in the source
[15] = target: Bromodomain-containing protein 3 (Homo sapiens) (UniProt Q15059); details: Compound concentration 10.0 uM, Protein concentration 2.0 uM
[16] = target: Bromodomain-containing protein 3 (Homo sapiens) (UniProt Q15059); details: Compound concentration 10.0 uM, Protein concentration 2.0 uM; remark: listed apart in the source
[17] = target: Bromodomain-containing protein 4 (Homo sapiens) (UniProt O60885); details: Compound concentration 10.0 uM, Protein concentration 2.0 uM
[18] = target: Bromodomain-containing protein 7 (Homo sapiens) (UniProt Q9NPI1); details: Compound concentration 10.0 uM, Protein concentration 2.0 uM
[19] = target: Bromodomain-containing protein 9 (Homo sapiens) (UniProt Q9H8M2); details: Compound concentration 10.0 uM, Protein concentration 2.0 uM
[20] = target: Bromodomain testis-specific protein (Homo sapiens) (UniProt Q58F21); details: Compound concentration 10.0 uM, Protein concentration 2.0 uM
[21] = target: Bromodomain testis-specific protein (Homo sapiens) (UniProt Q58F21); details: Compound concentration 10.0 uM, Protein concentration 2.0 uM; remark: listed apart in the source
Peregrin (Homo sapiens) [22] = target: Peregrin (Homo sapiens) (UniProt P55201); details: Compound concentration 10.0 uM, Protein concentration 2.0 uM
[23] = target: Bromodomain and PHD finger-containing protein 3 (Homo sapiens) (UniProt Q9ULD4); details: Compound concentration 10.0 uM, Protein concentration 2.0 uM
[24] = target: Bromodomain and WD repeat-containing protein 1 (Homo sapiens) (UniProt Q9NSI6); details: Compound concentration 10.0 uM, Protein concentration 2.0 uM
[25] = target: Bromodomain and WD repeat-containing protein 3 (Homo sapiens) (UniProt Q6RI45); details: Compound concentration 10.0 uM, Protein concentration 2.0 uM
[26] = target: T2, Chromatin remodeling regulator CECR2; details: Compound concentration 10.0 uM, Protein concentration 2.0 uM
[27] = target: CREB-binding protein (Homo sapiens) (UniProt Q92793); details: Compound concentration 10.0 uM, Protein concentration 2.0 uM
[28] = target: Histone acetyltransferase p300 (Homo sapiens) (UniProt Q09472); details: Compound concentration 10.0 uM, Protein concentration 2.0 uM
[29] = target: Histone acetyltransferase KAT2A (Homo sapiens) (UniProt Q92830); details: Compound concentration 10.0 uM, Protein concentration 2.0 uM
[30] = target: Histone acetyltransferase KAT2B (Homo sapiens) (UniProt Q92831); details: Compound concentration 10.0 uM, Protein concentration 2.0 uM
[31] = target: Histone-lysine N-methyltransferase 2A (Homo sapiens) (UniProt Q03164); details: Compound concentration 10.0 uM, Protein concentration 2.0 uM
[32] = target: Protein polybromo-1 (Homo sapiens) (UniProt Q86U86); details: Compound concentration 10.0 uM, Protein concentration 2.0 uM
[33] = target: Protein polybromo-1 (Homo sapiens) (UniProt Q86U86); details: Compound concentration 10.0 uM, Protein concentration 2.0 uM; remark: listed apart in the source
[34] = target: Protein polybromo-1 (Homo sapiens) (UniProt Q86U86); details: Compound concentration 10.0 uM, Protein concentration 2.0 uM; remark: listed apart in the source
[35] = target: Protein polybromo-1 (Homo sapiens) (UniProt Q86U86); details: Compound concentration 10.0 uM, Protein concentration 2.0 uM; remark: listed apart in the source
[36] = target: Protein polybromo-1 (Homo sapiens) (UniProt Q86U86); details: Compound concentration 10.0 uM, Protein concentration 2.0 uM; remark: listed apart in the source
[37] = target: Protein polybromo-1 (Homo sapiens) (UniProt Q86U86); details: Compound concentration 10.0 uM, Protein concentration 2.0 uM; remark: listed apart in the source
[38] = target: PH-interacting protein (Homo sapiens) (UniProt Q8WWQ0); details: Compound concentration 10.0 uM, Protein concentration 2.0 uM
[39] = target: SWI/SNF-related matrix-associated actin-dependent regulator of chromatin subfamily A member 2 (Homo sapiens) (UniProt P51531); details: Compound concentration 10.0 uM, Protein concentration 2.0 uM
[40] = target: SWI/SNF-related matrix-associated actin-dependent regulator of chromatin subfamily A member 4 (Homo sapiens) (UniProt P51532); details: Compound concentration 10.0 uM, Protein concentration 2.0 uM
[41] = target: Nuclear body protein SP140 (Homo sapiens) (UniProt Q13342); details: Compound concentration 10.0 uM, Protein concentration 2.0 uM
[42] = target: Nuclear body protein SP140-like protein (Homo sapiens) (UniProt Q9H930); details: Compound concentration 10.0 uM, Protein concentration 2.0 uM
[43] = target: Transcription initiation factor TFIID subunit 1 (Homo sapiens) (UniProt P21675); details: Compound concentration 10.0 uM, Protein concentration 2.0 uM
[44] = target: Transcription initiation factor TFIID subunit 1 (Homo sapiens) (UniProt P21675); details: Compound concentration 10.0 uM, Protein concentration 2.0 uM; remark: listed apart in the source
[45] = target: Transcription initiation factor TFIID subunit 1-like (Homo sapiens) (UniProt Q8IZX4); details: Compound concentration 10.0 uM, Protein concentration 2.0 uM
[46] = target: Transcription initiation factor TFIID subunit 1-like (Homo sapiens) (UniProt Q8IZX4); details: Compound concentration 10.0 uM, Protein concentration 2.0 uM; remark: listed apart in the source
[47] = target: Transcription intermediary factor 1-alpha (Homo sapiens) (UniProt O15164); details: Compound concentration 10.0 uM, Protein concentration 2.0 uM
[48] = target: Transcription intermediary factor 1-beta (Homo sapiens) (UniProt Q13263); details: Compound concentration 10.0 uM, Protein concentration 2.0 uM
Peregrin (Homo sapiens) [49] = target: Peregrin (Homo sapiens) (UniProt P55201); details: Compound concentration 10.0 uM, Protein concentration 2.0 uM; remark: listed apart in the source

Protein polybromo-1 (Homo sapiens), sequence (Q86U86 whole entry): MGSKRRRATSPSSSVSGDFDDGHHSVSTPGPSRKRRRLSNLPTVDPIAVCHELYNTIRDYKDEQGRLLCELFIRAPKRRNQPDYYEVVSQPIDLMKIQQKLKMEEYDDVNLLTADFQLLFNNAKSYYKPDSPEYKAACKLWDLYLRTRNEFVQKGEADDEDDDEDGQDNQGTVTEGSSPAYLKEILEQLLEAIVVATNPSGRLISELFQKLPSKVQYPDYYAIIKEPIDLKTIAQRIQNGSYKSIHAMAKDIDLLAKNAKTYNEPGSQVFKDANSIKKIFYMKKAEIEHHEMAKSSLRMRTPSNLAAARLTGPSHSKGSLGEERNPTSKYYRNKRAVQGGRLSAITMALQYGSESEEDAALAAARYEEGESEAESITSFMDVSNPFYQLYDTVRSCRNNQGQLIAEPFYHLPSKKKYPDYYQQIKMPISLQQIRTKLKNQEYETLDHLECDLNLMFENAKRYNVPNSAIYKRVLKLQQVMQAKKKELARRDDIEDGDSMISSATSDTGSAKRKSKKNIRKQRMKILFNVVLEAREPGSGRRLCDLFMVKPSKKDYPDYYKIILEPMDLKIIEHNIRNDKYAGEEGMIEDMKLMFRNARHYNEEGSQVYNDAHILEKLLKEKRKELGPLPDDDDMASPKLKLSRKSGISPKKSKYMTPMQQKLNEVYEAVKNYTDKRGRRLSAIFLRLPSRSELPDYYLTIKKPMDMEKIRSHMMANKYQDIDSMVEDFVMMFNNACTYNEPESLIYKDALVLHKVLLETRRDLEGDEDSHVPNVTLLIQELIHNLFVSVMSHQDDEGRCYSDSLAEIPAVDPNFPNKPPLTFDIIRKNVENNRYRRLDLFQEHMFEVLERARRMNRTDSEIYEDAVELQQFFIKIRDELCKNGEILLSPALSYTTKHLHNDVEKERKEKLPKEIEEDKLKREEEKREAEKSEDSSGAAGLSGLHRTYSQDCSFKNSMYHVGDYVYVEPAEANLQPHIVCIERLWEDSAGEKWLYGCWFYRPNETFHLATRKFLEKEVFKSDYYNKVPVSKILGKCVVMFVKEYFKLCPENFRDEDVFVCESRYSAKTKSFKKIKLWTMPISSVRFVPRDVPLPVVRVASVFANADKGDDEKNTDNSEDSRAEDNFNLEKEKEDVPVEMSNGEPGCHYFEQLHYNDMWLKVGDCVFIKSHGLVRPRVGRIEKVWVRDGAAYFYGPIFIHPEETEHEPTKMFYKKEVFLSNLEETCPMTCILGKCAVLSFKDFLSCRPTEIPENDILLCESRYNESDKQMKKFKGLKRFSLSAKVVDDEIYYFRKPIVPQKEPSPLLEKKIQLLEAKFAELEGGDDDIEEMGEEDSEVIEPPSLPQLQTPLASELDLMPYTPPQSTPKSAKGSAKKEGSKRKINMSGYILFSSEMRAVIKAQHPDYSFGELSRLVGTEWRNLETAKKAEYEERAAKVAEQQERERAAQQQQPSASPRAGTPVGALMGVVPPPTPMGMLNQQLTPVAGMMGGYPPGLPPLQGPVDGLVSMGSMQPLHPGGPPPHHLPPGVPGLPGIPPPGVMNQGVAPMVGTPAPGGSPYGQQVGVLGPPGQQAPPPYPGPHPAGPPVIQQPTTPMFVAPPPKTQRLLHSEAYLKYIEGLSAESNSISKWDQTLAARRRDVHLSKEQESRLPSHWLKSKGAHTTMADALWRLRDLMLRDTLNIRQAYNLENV
Transcription initiation factor TFIID subunit 1-like (Homo sapiens), sequence (Q8IZX4 whole entry): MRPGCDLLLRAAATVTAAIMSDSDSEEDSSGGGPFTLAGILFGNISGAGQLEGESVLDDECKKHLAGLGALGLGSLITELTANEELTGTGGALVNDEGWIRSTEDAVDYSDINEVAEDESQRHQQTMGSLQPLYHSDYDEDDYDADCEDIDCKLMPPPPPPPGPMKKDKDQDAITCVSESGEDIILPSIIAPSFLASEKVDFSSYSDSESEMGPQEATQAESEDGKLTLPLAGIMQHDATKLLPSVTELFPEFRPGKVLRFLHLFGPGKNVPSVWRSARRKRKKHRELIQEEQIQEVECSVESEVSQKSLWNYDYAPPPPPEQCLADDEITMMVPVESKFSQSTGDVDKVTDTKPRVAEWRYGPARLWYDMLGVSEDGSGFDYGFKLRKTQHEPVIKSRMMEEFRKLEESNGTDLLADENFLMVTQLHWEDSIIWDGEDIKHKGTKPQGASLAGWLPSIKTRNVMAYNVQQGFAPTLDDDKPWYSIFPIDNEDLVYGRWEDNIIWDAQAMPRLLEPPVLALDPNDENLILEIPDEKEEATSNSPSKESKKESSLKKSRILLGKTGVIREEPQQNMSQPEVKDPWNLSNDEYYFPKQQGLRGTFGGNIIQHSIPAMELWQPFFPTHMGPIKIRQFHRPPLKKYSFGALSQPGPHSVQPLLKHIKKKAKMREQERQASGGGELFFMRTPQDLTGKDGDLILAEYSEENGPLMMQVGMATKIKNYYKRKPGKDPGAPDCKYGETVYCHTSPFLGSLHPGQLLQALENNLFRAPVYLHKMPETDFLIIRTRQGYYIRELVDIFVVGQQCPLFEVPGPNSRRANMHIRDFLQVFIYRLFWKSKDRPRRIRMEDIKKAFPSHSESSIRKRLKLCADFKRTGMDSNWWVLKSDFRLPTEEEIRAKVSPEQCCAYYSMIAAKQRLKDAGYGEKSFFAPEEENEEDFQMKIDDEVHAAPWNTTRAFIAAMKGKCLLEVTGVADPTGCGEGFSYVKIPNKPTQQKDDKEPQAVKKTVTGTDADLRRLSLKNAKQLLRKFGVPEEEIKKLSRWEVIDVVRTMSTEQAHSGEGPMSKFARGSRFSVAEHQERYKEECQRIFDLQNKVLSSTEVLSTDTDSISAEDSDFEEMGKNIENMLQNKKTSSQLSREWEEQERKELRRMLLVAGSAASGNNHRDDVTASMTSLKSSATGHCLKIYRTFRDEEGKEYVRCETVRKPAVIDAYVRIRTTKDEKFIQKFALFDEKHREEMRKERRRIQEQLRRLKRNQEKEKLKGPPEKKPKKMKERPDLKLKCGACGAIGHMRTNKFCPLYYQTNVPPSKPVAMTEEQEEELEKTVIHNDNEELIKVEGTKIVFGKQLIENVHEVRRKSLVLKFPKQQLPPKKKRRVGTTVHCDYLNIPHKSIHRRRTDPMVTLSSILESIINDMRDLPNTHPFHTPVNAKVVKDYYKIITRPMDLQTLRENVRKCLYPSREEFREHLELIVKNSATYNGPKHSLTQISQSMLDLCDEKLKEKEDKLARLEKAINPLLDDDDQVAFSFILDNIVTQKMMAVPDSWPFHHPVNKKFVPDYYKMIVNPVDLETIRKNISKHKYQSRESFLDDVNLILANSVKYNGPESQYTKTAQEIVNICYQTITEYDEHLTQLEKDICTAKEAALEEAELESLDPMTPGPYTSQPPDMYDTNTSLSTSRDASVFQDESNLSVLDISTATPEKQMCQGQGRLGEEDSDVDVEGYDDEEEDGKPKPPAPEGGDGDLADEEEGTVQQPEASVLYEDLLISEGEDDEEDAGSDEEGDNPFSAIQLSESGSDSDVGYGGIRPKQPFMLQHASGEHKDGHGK
Bromodomain-containing protein 2 (Homo sapiens), sequence (P25440 whole entry, looked up): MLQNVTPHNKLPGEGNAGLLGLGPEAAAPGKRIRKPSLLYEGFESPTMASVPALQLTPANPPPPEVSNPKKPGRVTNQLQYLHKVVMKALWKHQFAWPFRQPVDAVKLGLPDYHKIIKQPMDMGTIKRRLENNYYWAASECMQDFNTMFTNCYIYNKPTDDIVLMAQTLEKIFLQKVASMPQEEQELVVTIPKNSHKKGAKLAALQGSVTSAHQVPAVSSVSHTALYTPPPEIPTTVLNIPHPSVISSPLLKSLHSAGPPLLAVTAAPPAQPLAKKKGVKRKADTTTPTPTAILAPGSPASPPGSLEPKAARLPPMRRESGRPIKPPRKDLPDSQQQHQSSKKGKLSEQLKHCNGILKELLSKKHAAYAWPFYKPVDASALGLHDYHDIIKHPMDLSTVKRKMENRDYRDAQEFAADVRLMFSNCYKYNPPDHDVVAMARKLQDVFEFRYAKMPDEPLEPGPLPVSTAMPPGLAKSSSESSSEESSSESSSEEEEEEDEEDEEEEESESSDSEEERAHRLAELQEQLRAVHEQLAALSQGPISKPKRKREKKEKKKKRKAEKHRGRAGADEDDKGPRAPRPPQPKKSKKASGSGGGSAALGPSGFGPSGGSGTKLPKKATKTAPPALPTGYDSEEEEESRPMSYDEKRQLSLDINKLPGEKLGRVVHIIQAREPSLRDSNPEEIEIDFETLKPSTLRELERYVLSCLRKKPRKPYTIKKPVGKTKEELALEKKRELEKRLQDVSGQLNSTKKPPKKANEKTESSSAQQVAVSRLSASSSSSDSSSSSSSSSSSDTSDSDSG
Bromodomain-containing protein 3 (Homo sapiens), sequence (Q15059 2-726 limits assumed): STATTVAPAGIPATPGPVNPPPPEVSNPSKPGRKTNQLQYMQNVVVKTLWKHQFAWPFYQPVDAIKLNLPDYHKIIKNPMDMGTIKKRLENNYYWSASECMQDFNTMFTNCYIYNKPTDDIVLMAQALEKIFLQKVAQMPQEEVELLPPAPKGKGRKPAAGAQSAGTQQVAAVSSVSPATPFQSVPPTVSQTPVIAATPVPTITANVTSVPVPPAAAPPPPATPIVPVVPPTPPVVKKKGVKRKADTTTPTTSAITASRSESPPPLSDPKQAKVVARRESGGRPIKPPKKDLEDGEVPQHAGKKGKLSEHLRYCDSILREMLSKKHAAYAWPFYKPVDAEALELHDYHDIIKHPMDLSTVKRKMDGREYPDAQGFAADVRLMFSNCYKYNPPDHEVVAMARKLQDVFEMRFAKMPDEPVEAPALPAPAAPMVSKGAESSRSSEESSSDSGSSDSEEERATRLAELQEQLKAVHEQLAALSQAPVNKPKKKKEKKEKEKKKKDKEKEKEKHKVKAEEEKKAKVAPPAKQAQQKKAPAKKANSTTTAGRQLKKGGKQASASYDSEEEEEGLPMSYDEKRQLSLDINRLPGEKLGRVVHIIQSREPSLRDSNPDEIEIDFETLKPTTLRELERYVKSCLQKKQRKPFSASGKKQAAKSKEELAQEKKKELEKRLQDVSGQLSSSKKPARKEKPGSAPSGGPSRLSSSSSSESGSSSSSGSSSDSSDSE

IC50 [1]: 1460 nM | IC50 (Peregrin): 4400 nM | IC50 [2]: 37.5 nM | IC50 [3]: 19.3 nM | ΔTm [4]: 0.48 °C | ΔTm [5]: 1.07 °C | ΔTm [6]: 0.82 °C | ΔTm [7]: -0.77 °C | ΔTm [8]: -0.35 °C | ΔTm [9]: 0.14 °C | ΔTm [10]: 0.4 °C | ΔTm [11]: 1.67 °C | ΔTm [12]: 0.34 °C | ΔTm [13]: 0.54 °C | ΔTm [14]: 0.39 °C | ΔTm [15]: 0.35 °C | ΔTm [16]: 0.37 °C | ΔTm [17]: 1.85 °C | ΔTm [18]: 1.3 °C | ΔTm [19]: 0.96 °C | ΔTm [20]: -0.15 °C | ΔTm [21]: 0.51 °C | ΔTm (Peregrin (Homo sapiens) [22]): 0.16 °C | ΔTm [23]: 0.48 °C | ΔTm [24]: 1.71 °C | ΔTm [25]: -0.86 °C | ΔTm [26]: 12.6 °C | ΔTm [27]: 0.36 °C | ΔTm [28]: 0.85 °C | ΔTm [29]: 1.2 °C | ΔTm [30]: 0.62 °C | ΔTm [31]: 0.08 °C | ΔTm [32]: 0.51 °C | ΔTm [33]: -0.21 °C | ΔTm [34]: 0.48 °C | ΔTm [35]: 0.63 °C | ΔTm [36]: 0.88 °C | ΔTm [37]: 0.34 °C | ΔTm [38]: -0.17 °C | ΔTm [39]: 0.87 °C | ΔTm [40]: 1.26 °C | ΔTm [41]: 0.58 °C | ΔTm [42]: 0.62 °C | ΔTm [43]: 1.09 °C | ΔTm [44]: 1.25 °C | ΔTm [45]: 0.73 °C | ΔTm [46]: 1.56 °C | ΔTm [47]: 1.38 °C | ΔTm [48]: 1.37 °C | ΔTm (Peregrin (Homo sapiens) [49]): 0.38 °C
Structure (SMILES): CCCS(=O)(=O)c1nc(NC2CC2)cc(-c2ccc3c(ccn3C3CC(C)(C)NC(C)(C)C3)c2)n1
